# In US10125100B2, “Kinase inhibitors” (Respivert Limited, priority 2014, dated 2018):
# pIC50: −log10 of the molar value. Read-outs that look alike come from different tables or passages of the source.
# What was measured:
# p38 MAPKα (MAPK14) = p38 MAPKα (MAPK14) (Homo sapiens (Human), UniProt Q16539); experiment: p38 MAPKα enzyme inhibition (Method 2), Z-LYTE FRET; assay type: biochemical
# In short: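 Enzyme (200 ng/mL solution) was preincubated 2 h at RT with compound solutions of 1, 0.1, 0.01 or 0.001 μg/mL, and inhibition was read indirectly via MAPKAP-K2 activation/phosphorylation. After a 1 h RT reaction and 1 h protease development, phosphorylation was derived from the coumarin/fluorescein emission ratio.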
# Syk = Syk (Homo sapiens (Human), UniProt P43405); experiment: Syk enzyme inhibition, Z-LYTE FRET; assay type: biochemical
# In short: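 Syk or c-Src enzyme (3000 or 2000 ng/mL solutions) was preincubated 2 h at RT with compound solutions at 1, 0.1, 0.01 or 0.001 µg/mL. Z-LYTE FRET peptide (8 µM solution) and ATP (800 µM solution for c-Src, 60 µM for Syk) were then added for 1 h, followed by protease development for 1 h. Phosphorylation was read as the coumarin/fluorescein emission ratio.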
# c-Src = c-Src (Homo sapiens (Human), UniProt P12931); experiment: c-Src enzyme inhibition, Z-LYTE FRET; assay type: biochemical
# Sequence of c-Src (P12931 whole entry, looked up): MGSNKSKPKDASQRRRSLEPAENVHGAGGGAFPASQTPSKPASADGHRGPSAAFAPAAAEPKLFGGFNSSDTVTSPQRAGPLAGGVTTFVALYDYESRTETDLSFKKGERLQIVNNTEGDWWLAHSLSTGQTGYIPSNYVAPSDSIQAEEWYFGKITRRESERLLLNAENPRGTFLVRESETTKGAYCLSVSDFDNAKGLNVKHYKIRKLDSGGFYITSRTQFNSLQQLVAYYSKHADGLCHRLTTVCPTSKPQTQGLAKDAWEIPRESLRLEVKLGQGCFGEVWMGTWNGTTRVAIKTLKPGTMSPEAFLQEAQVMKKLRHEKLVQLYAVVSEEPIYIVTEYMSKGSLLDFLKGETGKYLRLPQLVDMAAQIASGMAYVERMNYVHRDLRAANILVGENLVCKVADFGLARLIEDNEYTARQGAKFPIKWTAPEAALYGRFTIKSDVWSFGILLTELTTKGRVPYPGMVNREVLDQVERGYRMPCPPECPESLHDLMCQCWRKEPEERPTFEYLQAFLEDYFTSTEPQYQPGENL
# In short: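 Human Syk and c-Src (enzyme at 2000 or 3000 ng/mL respectively, pre-dilution) preincubated 2 hr at RT with compound at 1, 0.1, 0.01 or 0.001 μg/mL; FRET peptide added with ATP (60 μM Syk, 800 μM c-Src; solution concentrations), 1 hr. Protease development 1 hr; phosphorylation from coumarin/fluorescein emission ratio.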
# B-Raf = B-Raf (Homo sapiens (Human), UniProt P15056); experiment: KINOMEscan binding of kinase to standard ligand; details: KINOMEscan technology
# Sequence of B-Raf (P15056 whole entry): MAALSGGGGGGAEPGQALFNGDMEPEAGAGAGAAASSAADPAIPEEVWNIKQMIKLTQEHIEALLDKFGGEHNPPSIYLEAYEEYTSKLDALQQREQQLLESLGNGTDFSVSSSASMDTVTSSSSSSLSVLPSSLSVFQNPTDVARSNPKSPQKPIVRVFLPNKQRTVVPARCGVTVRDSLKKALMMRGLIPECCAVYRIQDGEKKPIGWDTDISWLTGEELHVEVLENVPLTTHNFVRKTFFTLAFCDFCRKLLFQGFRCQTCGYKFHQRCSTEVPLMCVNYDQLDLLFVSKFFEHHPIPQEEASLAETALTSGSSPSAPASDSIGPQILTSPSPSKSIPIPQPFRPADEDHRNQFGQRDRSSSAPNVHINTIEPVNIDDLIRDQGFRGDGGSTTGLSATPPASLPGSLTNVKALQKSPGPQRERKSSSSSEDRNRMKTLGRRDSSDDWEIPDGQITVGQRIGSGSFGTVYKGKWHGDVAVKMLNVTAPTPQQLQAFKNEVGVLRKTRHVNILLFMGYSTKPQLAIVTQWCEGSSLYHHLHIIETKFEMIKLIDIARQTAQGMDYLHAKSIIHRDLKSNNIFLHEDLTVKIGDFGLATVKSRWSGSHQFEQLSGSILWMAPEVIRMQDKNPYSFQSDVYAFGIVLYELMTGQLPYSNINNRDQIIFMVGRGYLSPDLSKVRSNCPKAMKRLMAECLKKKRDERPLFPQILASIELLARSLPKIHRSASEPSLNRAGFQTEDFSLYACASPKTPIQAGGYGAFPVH
# Description: (§1) These assays may be conducted by DiscoverX (formerly Ambit; San Diego, Calif.).
# B-Raf (V600E) = B-Raf (V600E) (Homo sapiens (Human), UniProt P15056, V600E); experiment: KINOMEscan binding of kinase to standard ligand; details: KINOMEscan technology
# Sequence of B-Raf (V600E) (P15056 whole entry V600E): as the sequence (P15056 whole entry) above, with V600E counted along it
# Description: as §1
# [1] = Pharmacokinetics and total colon distribution after oral administration; assay type: in vivo; details: male, C57BL/6, mouse, mice, Ex. 36 measured after oral 5 mg/kg of Ex. 47 (Na salt)
# Protocol: Studies were conducted by Sai Life Sciences (Hinjewadi, Pune, India) to investigate the systemic pharmacokinetics and total colon tissue distribution of compounds of the invention. In particular, pharmacokinetic studies were carried out in male C57BL/6 mice following a single oral administration of the compound.
# Jurkat cells = experiment: (r) Cell cytotoxicity assay; assay type: cell-based, human; details: 24 hours
# In short: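 Jurkat cells (1×10^5/well, RPMI + 10% FBS) exposed to compound at 20, 5 or 1 μg/mL final (1.0% DMSO control) for 24 h at 37° C., 5% CO2. Then stained with 7.5 μg/mL propidium iodide for 15 min. % viability = PI-negative cells by flow cytometry, normalized to DMSO.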
# non-mutant kinases = experiment: KinomeScan selectivity scores; assay type: binding; details: for number of individual kinase hits S(1): % Ctrl <1; for number of individual kinase hits S(10): % Ctrl <10; for number of individual kinase hits S(35): % Ctrl <35; for KinomeScan Selectivity Score S(1): non-mutant kinases with % Ctrl <1 / kinases tested; for KinomeScan Selectivity Score S(10): non-mutant kinases with % Ctrl <10 / kinases tested; for KinomeScan Selectivity Score S(35): non-mutant kinases with % Ctrl <35 / kinases tested
# Description: as §1
# [2] = total colon, read-out: total colon level
# [3] = whole blood, read-out: Mean blood concentration
# Sequence of p38 MAPKα (MAPK14) (Q16539 whole entry): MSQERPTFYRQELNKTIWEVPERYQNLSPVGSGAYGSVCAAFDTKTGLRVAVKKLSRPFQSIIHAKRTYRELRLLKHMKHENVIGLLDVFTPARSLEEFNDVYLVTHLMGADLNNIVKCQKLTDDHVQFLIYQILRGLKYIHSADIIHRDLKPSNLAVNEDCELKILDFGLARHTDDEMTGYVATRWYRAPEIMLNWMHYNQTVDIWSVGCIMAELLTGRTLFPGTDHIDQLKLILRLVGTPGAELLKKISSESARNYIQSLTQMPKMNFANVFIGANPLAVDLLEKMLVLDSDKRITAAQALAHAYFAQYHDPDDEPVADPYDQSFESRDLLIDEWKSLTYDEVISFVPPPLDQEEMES
structure (smiles),measurement,setting,value
"COc1cc(Nc2cc(Oc3ccc(NC(=O)Nc4cc(C(C)(C)C)cc(NS(C)(=O)=O)c4OC)c4ccccc34)ccn2)cc(OC)c1C(=O)NCCOCCOCCO [Example 36, 4-((4-((4-(3-(5-(tert-butyl)-2-methoxy-3-(methylsulfonamido)phenyl)ureido)naphthalen-1-yl)oxy)pyridin-2-yl)amino)-N-(2-(2-(2-hydroxyethoxy)ethoxy)ethyl)-2,6-dimethoxybenzamide]",pIC50,p38 MAPKα (MAPK14),7.72
same,pIC50,Syk,6.72
same,pIC50,c-Src,8.00
same,effect on the binding of B-Raf to its standard ligand,B-Raf,did not have any significant effect
same,effect on the binding of B-Raf (V600E) to its standard ligand,B-Raf (V600E),did not have any significant effect
same,concentration at 0.5 h,[1]; [2],37.8 ng/g
same,concentration at 1 h,[1]; [2],95.1 ng/g
same,concentration at 2 h,[1]; [2],643 ng/g
same,concentration at 4 h,[1]; [2],798 ng/g
same,concentration at 6 h,[1]; [2],380 ng/g
same,concentration at 8 h,[1]; [2],1070 ng/g
same,concentration at 12 h,[1]; [2],139 ng/g
same,concentration at 24 h,[1]; [2],0 ng/g
same,concentration at 0.5 h,[1]; [3],0 ng/mL
same,concentration at 1 h,[1]; [3],0 ng/mL
same,concentration at 2 h,[1]; [3],0 ng/mL
same,concentration at 4 h,[1]; [3],0 ng/mL
same,concentration at 6 h,[1]; [3],0 ng/mL
same,concentration at 8 h,[1]; [3],0 ng/mL
same,concentration at 12 h,[1]; [3],0 ng/mL
same,concentration at 24 h,[1]; [3],0 ng/mL
same,% Viability at 1 μg/mL,Jurkat cells; 1 μg/mL,93.3%
same,% Viability at 5 μg/mL,Jurkat cells; 5 μg/mL,89.3%
same,% Viability at 20 μg/mL,Jurkat cells; 20 μg/mL,84.9%
same,number of individual kinase hits S(1),non-mutant kinases; 50 nM,1
same,number of individual kinase hits S(10),non-mutant kinases; 50 nM,20
same,number of individual kinase hits S(35),non-mutant kinases; 50 nM,60
same,KinomeScan Selectivity Score S(1),non-mutant kinases; 50 nM,0.002
same,KinomeScan Selectivity Score S(10),non-mutant kinases; 50 nM,0.050
same,KinomeScan Selectivity Score S(35),non-mutant kinases; 50 nM,0.149
same,number of individual kinase hits S(1),non-mutant kinases; 500 nM,32
same,number of individual kinase hits S(10),non-mutant kinases; 500 nM,83
same,number of individual kinase hits S(35),non-mutant kinases; 500 nM,120
same,KinomeScan Selectivity Score S(1),non-mutant kinases; 500 nM,0.079
same,KinomeScan Selectivity Score S(10),non-mutant kinases; 500 nM,0.206
same,KinomeScan Selectivity Score S(35),non-mutant kinases; 500 nM,0.298
